In the supplement of paper PMC10307832:

Key:
Test in all cases: relative viability (nuclei count vs DMSO), 5 days (fraction); higher = more cells survive
Venetoclax + OSI-027 = compound: CC1(C)CCC(CN2CCN(c3ccc(C(=O)NS(=O)(=O)c4ccc(NCC5CCOCC5)c([N+](=O)[O-])c4)c(Oc4cnc5[nH]ccc5c4)c3)CC2)=C(c2ccc(Cl)cc2)C1 [Venetoclax] + COc1cccc2cc(-c3nc([C@H]4CC[C@H](C(=O)O)CC4)n4ncnc(N)c34)[nH]c12 [OSI-027] (partner 0.5 µM)
Summary of the method: (§1)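 Values are medians from duplicate plates. Each reflects relative viability, defined as the nuclei count of treated wells over that of vehicle wells. Lung cancer cell lines in 1536-well plates were pin-tool dosed one day after seeding with one drug alone or with a fixed anchor-drug dose plus five library-drug doses (not always all listed) in √10 steps, then fixed, stained and imaged at 4× after 5 days.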

Selumetinib + Lapatinib = compound: Cn1cnc2c(F)c(Nc3ccc(Br)cc3Cl)c(C(=O)NOCCO)cc21 [Selumetinib] + CS(=O)(=O)CCNCc1ccc(-c2ccc3ncnc(Nc4ccc(OCc5cccc(F)c5)c(Cl)c4)c3c2)o1 [Lapatinib] (partner 2 µM)
Summary of the method: as §1

Selumetinib + Luminespib = compound: Cn1cnc2c(F)c(Nc3ccc(Br)cc3Cl)c(C(=O)NOCCO)cc21 [Selumetinib] + CCNC(=O)c1noc(-c2cc(C(C)C)c(O)cc2O)c1-c1ccc(CN2CCOCC2)cc1 [Luminespib] (partner 0.01 µM)
Summary of the method: as §1

Selumetinib + AZD7762 = compound: Cn1cnc2c(F)c(Nc3ccc(Br)cc3Cl)c(C(=O)NOCCO)cc21 [Selumetinib] + NC(=O)Nc1cc(-c2cccc(F)c2)sc1C(=O)N[C@H]1CCCNC1 [AZD7762] (partner 0.2 µM)
Summary of the method: as §1

Cell Line | relative viability (Venetoclax + OSI-027; first compound 0.01 µM) | relative viability (Venetoclax + OSI-027; first compound 0.03162 µM) | relative viability (Venetoclax + OSI-027; first compound 0.1 µM) | relative viability (Venetoclax + OSI-027; first compound 0.3162 µM) | relative viability (Venetoclax + OSI-027; first compound 1 µM) | relative viability (Selumetinib + Lapatinib; first compound 0.02 µM) | relative viability (Selumetinib + Lapatinib; first compound 0.06325 µM) | relative viability (Selumetinib + Lapatinib; first compound 0.2 µM) | relative viability (Selumetinib + Lapatinib; first compound 0.6325 µM) | relative viability (Selumetinib + Luminespib; first compound 0.02 µM) | relative viability (Selumetinib + Luminespib; first compound 0.06325 µM) | relative viability (Selumetinib + Luminespib; first compound 0.2 µM) | relative viability (Selumetinib + Luminespib; first compound 0.6325 µM) | relative viability (Selumetinib + AZD7762; first compound 0.02 µM) | relative viability (Selumetinib + AZD7762; first compound 0.06325 µM) | relative viability (Selumetinib + AZD7762; first compound 0.2 µM) | relative viability (Selumetinib + AZD7762; first compound 0.6325 µM)
NCI-H1650 | 0.531 | 0.856 | 0.606 | 0.783 | 0.529 | 0.704 | 0.639 | 0.704 | 0.721 | 0.194 | 0.2 | 0.198 | 0.202 |  |  |  | 
HARA | 0.427 | 0.571 | 0.452 | 0.427 | 0.362 | 0.657 | 0.506 | 0.606 | 0.486 | 0.708 | 0.783 | 0.536 | 0.168 | 0.38 | 0.34 | 0.341 | 0.152
Calu-6 |  |  |  |  |  | 1.05 | 0.853 | 0.693 | 0.439 |  |  |  |  |  |  |  | 
NCI-H1975 | 0.768 | 0.788 | 0.667 | 0.702 | 0.68 | 0.856 | 0.65 | 0.794 | 0.674 | 0.143 | 0.209 | 0.175 | 0.183 | 0.69 | 0.599 | 0.662 | 0.527
SK-MES-1 | 0.61 | 0.626 | 0.599 | 0.572 | 0.518 | 0.432 | 0.401 | 0.361 | 0.371 | 0.74 | 0.559 | 0.344 | 0.375 |  |  |  | 
NCI-H2228 | 0.423 | 0.545 | 0.62 | 0.546 | 0.396 | 1.01 | 0.765 | 0.852 | 0.695 | 0.154 | 0.14 | 0.125 | 0.193 |  |  |  | 
NCI-H1299 |  |  |  |  |  | 1.06 | 0.959 | 1.02 | 0.812 |  |  |  |  |  |  |  | 
NCI-H661 | 0.682 | 0.789 | 0.705 | 0.681 | 0.617 | 0.449 | 0.466 | 0.427 | 0.351 | 0.977 | 0.929 | 0.942 | 0.864 |  |  |  | 
NCI-H441 | 0.569 | 0.566 | 0.608 | 0.575 | 0.553 |  |  |  |  | 0.25 | 0.272 | 0.204 | 0.28 | 1.07 | 0.974 | 1.01 | 0.69
EBC-1 |  |  |  |  |  | 0.203 | 0.201 | 0.239 | 0.199 |  |  |  |  |  |  |  | 
NCI-H1623 | 0.419 | 0.424 | 0.414 | 0.444 | 0.424 |  |  |  |  | 0.41 | 0.352 | 0.394 | 0.41 |  |  |  | 
NCI-H2342 | 0.767 | 0.708 | 0.554 | 0.715 | 0.665 |  |  |  |  | 0.655 | 0.64 | 0.677 | 0.69 | 0.551 | 0.436 | 0.474 | 0.568
SW 900 | 0.641 | 0.548 | 0.484 | 0.525 | 0.604 |  |  |  |  | 0.19 | 0.131 | 0.159 | 0.155 | 0.59 | 0.636 | 0.611 | 0.553
IA-LM |  |  |  |  |  | 0.395 | 0.182 | 0.111 | 0.108 |  |  |  |  |  |  |  | 
SK-LU-1 | 0.38 | 0.436 | 0.345 | 0.365 | 0.329 | 0.964 | 0.773 | 0.751 | 0.479 | 0.183 | 0.17 | 0.178 | 0.181 |  |  |  | 
COR-L 105 | 0.71 | 0.737 | 0.552 | 0.707 | 0.73 | 0.309 | 0.3 | 0.337 | 0.366 | 0.769 | 0.689 | 0.46 | 0.404 |  |  |  | 
NCI-H522 | 0.631 | 0.759 | 0.684 | 0.824 | 0.6 |  |  |  |  | 1.1 | 1.14 | 0.887 | 0.759 | 0.728 | 0.781 | 0.842 | 0.828
A549 |  |  |  |  |  | 0.84 | 0.731 | 0.749 | 0.5 |  |  |  |  |  |  |  | 
NCI-H1648 | 0.287 | 0.24 | 0.313 | 0.265 | 0.256 |  |  |  |  |  |  |  |  |  | 0.737 | 0.733 | 0.67
COR-L23 | 0.661 | 0.839 | 0.713 | 0.687 | 0.696 | 1.18 | 1.1 | 0.98 | 1 | 0.644 | 0.637 | 0.721 | 0.409 |  |  |  | 
ChaGo-K-1 | 0.716 | 0.634 | 0.516 | 0.552 | 0.479 |  |  |  |  | 0.531 | 0.48 | 0.731 | 0.568 | 0.865 | 0.845 | 0.905 | 0.899
NCI-H2023 | 0.44 | 0.363 | 0.313 | 0.427 | 0.312 | 0.893 | 0.692 | 0.747 | 0.766 | 0.947 | 0.669 | 0.575 | 0.575 |  |  |  | 
NCI-H2009 | 0.655 | 0.668 | 0.602 | 0.624 | 0.573 | 0.786 | 0.567 | 0.596 | 0.375 | 0.826 | 0.753 | 0.558 | 0.371 |  |  |  | 
HCC-78 | 0.4 | 0.387 | 0.35 | 0.347 | 0.371 | 0.695 | 0.64 | 0.657 | 0.675 |  |  |  |  | 0.576 | 0.581 | 0.526 | 0.477
